Assay results: patent US10227348B2, “Use of 10H-benzo[g]pteridine-2,4-dione derivatives” (TriOptoTec GmbH, priority 2011, dated 2019)

Assays:
[1] = system: Escherichia coli (ATCC number: 25922); assay: Phototoxicity test (photodynamic inactivation, CFU/ml by Miles and Misra); format: cell-based; conditions: E. coli; irradiation at 10.5 J/cm^2 (50 mW/cm^2, 210 sec, 390-500 nm); incubation 10 min or 30 min; CFU/ml after 24 h
Method: (§1) A sample of the bacterial strain Staphylococcus aureus (ATCC number: 25923) or Escherichia coli (ATCC number: 25922) was taken from a cryogenically frozen culture, isolated on Müller-Hinton agar plates and cultivated under aerobic conditions at 37° C. in an overnight culture. Thereafter, 5 ml of Müller-Hinton liquid medium were inoculated with a smear of the bacterial culture (single colony) and incubated at 37° C. overnight. The bacterial suspension thus obtained was centrifuged at 2500 rpm for 10 min and the bacterial pellet obtained was resuspended in 5 ml of sterile PBS. The optical density of the bacterial suspensions for the phototoxicity tests was OD600nm=0.6, which corresponds to a bacteria count of ˜[…] bacteria per ml. The biochemical analysis and resistance determination of the bacteria were conducted with the VITEK2 system according to the M100-S14 guidelines from the NCCLS (2004).
(§2) 200 μl of a bacterial suspension (bacterial density: 10^8-10^12/ml) were incubated with 200 μl of each of various concentrations of the photosensitizers to be tested at room temperature for 10 min or 30 min. Thereafter, the bacteria were washed twice with distilled water and resuspended in 200 μl of distilled water, and the entire volume was transferred to a 96-well microtiter plate and then irradiated. The photosensitizers used were dissolved in distilled water and various dilution series were prepared (0 μM, 1 μM, 10 μM, 100 μM).
(§3) For sensitization, the Omnicure Series 2000 lamp (Photonics Solutions Inc., Edinburgh, UK) was used, which emits light from a range from 390 nm to 500 nm and has emission maxima Emax at 405 nm and 436 nm. The power applied in each case was 50 mW/cm^2.
(§4) Irradiated and unirradiated samples were used as controls. Likewise run were bacterial suspensions incubated only with photosensitizer (dark control).
(§5) The determination of the colony-forming units (CFU) per ml was conducted by the method published by Miles and Misra (Miles, A A; Misra, S S, Irwin, J O (1938 November). “The estimation of the bactericidal power of the blood.”. The Journal of hygiene 38 (6): 732-49). For this purpose, serial dilutions from 10^−2 to 10^−9 of the corresponding bacterial suspension were prepared. 3×20 μl of each of the corresponding bacterial dilutions were then dripped onto Müller-Hinton plates and incubated at 37° C. for 24 h. Thereafter, the number of surviving colony-forming units (CFU) was determined. Each of the experiments was repeated three times.
(§6) The effectiveness of phototoxicity with respect to bacteria after irradiation was defined according to the following guidelines for hand hygiene in the health sector (Boyce, J. M., and D. Pittet. 2002. Guideline for Hand Hygiene in Health-Care Settings: recommendations of the Healthcare Infection Control Practices Advisory Committee and the HICPAC/SHEA/APIC/IDSA Hand Hygiene Task Force. Infect Control Hosp Epidemiol 23: p. 3-40): • reduction in the CFU/ml by 1 log10 stage≙90% effectiveness • reduction in the CFU/ml by 3 log10 stages≙99.9% effectiveness • reduction in the CFU/ml by 5 log10 stages≙99.999% effectiveness
(§7) For effective inactivation, the decrease of ≥3 log10 stages can therefore be adopted, and S. aureus and E. coli were chosen as examples of representatives from the group of the Gram-positive and Gram-negative bacteria (see Boyce J. M and D. Pittet 2009).

[2] = system: Staphylococcus aureus (ATCC number: 25923); assay: as above; format: cell-based; conditions: S. aureus; irradiation at 10.5 J/cm^2 (50 mW/cm^2, 210 sec, 390-500 nm); incubation 10 min or 30 min; CFU/ml after 24 h
Method: as §1, §2, §3, §4, §5, §6, §7

Row | SMILES | Required concentration to achieve a reduction by ≥3 log10 stages (decrease by 99.9%) [1] | Required concentration to achieve a reduction by ≥3 log10 stages (decrease by 99.9%) [2] [μM]
1 | Cc1cc2nc3c(=O)[nH]c(=O)nc-3n(CCN)c2cc1C [FL-01] | 10 μM | 10
2 | COCCn1c2nc(=O)n(CCNC(=N)N)c(=O)c-2nc2cc(C)c(C)cc21 [FL-04] | >100^(*^) μM | 50
3 | Cc1cc2nc3c(=O)[nH]c(=O)nc-3n(CCOCCOCCN)c2cc1C [FL-05] | >100^(*^) μM | 100
4 | COCCn1c2nc(=O)n(CCN)c(=O)c-2nc2cc(C)c(C)cc21 [FL-03] | >100^(*^) μM | 10
